Data from patent publication US20100144704A1, “Method of reducing amyloid-beta peptide levels using a bisdioxopiperazine” (priority 2006, published 2010).
“And” between values parts separate entries of the source, which are not always exact repeats. Identical values can stand only once.

Key:
[1] = tested on: SHSY-5Y human neuronal cells; assay: Cellular toxicity / cell viability by MTT assay; assay type: cell-based
Method: (§1) Cell Culture. The human neuroblastoma cell line, SHSY-5Y, was obtained from the American Type Culture Collection, culture medium was from Mediatech, Inc. (Herndon, Va.) and FCS from HyClone (Logan, Utah). Drug Treatment. […] Cells were allowed to grow in complete media (10% FCS, 2 mM glutamine in DMEM) for 2 days to reach 70% confluence. Thereafter, spent media was removed and replaced with fresh media (2 mL DMEM) containing 0 to 100 μM of freshly prepared compounds (clioquinol, razoxane and dexrazoxane. Cells were incubated at 37° C., 5% CO2 for 16 h. APP Western Blot and cell viability. Fifteen μg of protein from each sample was mixed with Laemmli buffer, boiled for 5 min at 100° C., and loaded onto a 10% SDS PAGE gel (Novex, San Diego, Calif.). […] The blots were incubated in secondary antibody, anti-mouse IgG—conjugated to horseradish peroxidase, for 30 min. Thereafter, samples were detected by chemiluminescence. Cell viability was assessed by a sensitive MTT assay. Values were expressed as the mean of between four and six independent assays and were statistically compared to control values. (See FIGS. 3-5).

APP = APP Western blot in SHSY-5Y cell culture; assay type: cell-based, human; conditions: for APP, percent control levels / APP, % control levels: 16 h; for APP, % control levels: FIG. 5 study
Method: as §1

[2] = cited from earlier work
[3] = razoxane compared to dexrazoxane
From the text: The pharmacokinetics of razoxane compared to those of dexrazoxane.

Aβ1-40 peptide = assay: Brain Aβ1-40 by sandwich ELISA in double transgenic mice after 21 day razoxane treatment; assay type: in vivo; conditions: for Average Conc, Aβ1-40: group average; for Conc, Aβ1-40: individual mouse cerebral cortex sample
Method: (§2) Double transgenic male mice (APP Swedish mutation+PS1 mutation) express human amyloid precursor protein (APP) and amyloid-β peptide (Aβ) within their brain and form amyloid depositions from 4 months onward. Razoxane (ICRF 159) was administered by intraperitoneal (i.p.) injection once daily for 21 consecutive days to a group of such mice, 5 to 6 months of age and approximately 22 to 28 g in weight. […] Within three hours of the final razoxane/vehicle administration, animals were killed, their brain exposed and a 50-80 mg sample of cerebral cortex collected and frozen at […].

Aβ1-42 peptide = assay: Brain Aβ1-42 by sandwich ELISA in double transgenic mice after 21 day razoxane treatment; assay type: in vivo; conditions: for Average Conc, Aβ1-42: group average; for Conc, Aβ1-42: individual mouse cerebral cortex sample
Method: as §2

[4] = in vivo; cited from earlier work
[5] = cited from earlier work; remark: listed apart in the source
[6] = 30 mg/kg once daily x 21 days, male 5 month old transgenic mice
[7] = razoxane 20 mg/kg i.p. once daily x 21 days
[8] = razoxane 30 mg/kg i.p. once daily x 21 days

Which Cell viability ([1]; 10 μM, associated with the 18% APP decline, FIG. 4) does the source give for `Oc1c(I)cc(Cl)c2cccnc12` [Clioquinol] here?
Its Cell viability is “loss of cell viability”.

And the “APP, percent control levels” value (APP; 0.5 μM, FIG. 4)?
Its value is 108%.

And the “APP, percent control levels” value (APP; 2 μM, FIG. 4)?
The value was 116%.

And the “APP, percent control levels” value (APP; 10 μM, FIG. 4)?
Its value is 82%.

What about the “Effect at lowering APP (in words)” value (APP; FIG. 4) of the same compound?
The value was “without affect”.

With `CC(CN1CC(=O)NC(=O)C1)N1CC(=O)NC(=O)C1` (single isomer, unassigned; (+)) [Dexrazoxane, (+)-1,2-Bis(3,5-dioxopiperazin-1-yl)propane] as the compound, how does the “Aqueous solubility (in words)” value [2] read?
Its value is “more soluble”.

What about the “APP, % control levels” value (APP; 0.5 μM) of the same compound?
The value was 87%.

What about the “APP, % control levels” value (APP; 10 μM) of the same compound?
Its value is 59%.

And the “Elimination from the body” value [3]?
Its value is “eliminated more rapidly”.

With `CC(CN1CC(=O)NC(=O)C1)N1CC(=O)NC(=O)C1` (racemic) [Razoxane, 1,2-bis(3,5-dioxopiperazin-1-yl)-propane] as the compound, how does the “Reduction of brain Aβ1-40 compared to the control group” value (Aβ1-40 peptide; [6]) read?
Its value is 46%.

What about the “Average Conc, Aβ1-40” value (Aβ1-40 peptide; [7]) of the same compound?
Its value is 375 pM.

What about the “Conc, Aβ1-40” value (Aβ1-40 peptide; [7]) of the same compound?
The value was 316.435 pM and 386.757 pM and 378.84 pM and 406.557 pM and 290.284 pM and 468.154 pM.

What about the “Average Conc, Aβ1-40” value (Aβ1-40 peptide; [8]) of the same compound?
The value was 213 pM.

What about the “Conc, Aβ1-40” value (Aβ1-40 peptide; [8]) of the same compound?
The value was 162.992 pM and 310.189 pM and 295.464 pM and 129.452 pM and 134.783 pM and 244.537 pM.

And the “Cellular toxicity against SHSY-5Y cells” value ([1]; concentrations up to 100 μM, 16 h, FIG. 3)?
The value was “well tolerated and without toxicity”.

What about the “Aqueous solubility (in words)” value [2] of the same compound?
Its value is “relatively low aqueous solubility”.

What about the “Reduction of brain Aβ1-42 compared to the control group” value (Aβ1-42 peptide; [6]) of the same compound?
The value was 29%.

And the “Average Conc, Aβ1-42” value (Aβ1-42 peptide; [7])?
The value was 564 pM.

And the “Conc, Aβ1-42” value (Aβ1-42 peptide; [7])?
The value was 489 pM and 545 pM and 533 pM and 562 pM and 553 pM and 701 pM.

What about the “Average Conc, Aβ1-42” value (Aβ1-42 peptide; [8]) of the same compound?
The value was 326 pM.

What about the “Conc, Aβ1-42” value (Aβ1-42 peptide; [8]) of the same compound?
Its value is 365 pM and 504 pM and 471 pM and 216 pM and 27.2 pM and 370 pM.

What about the “Crossing of the blood/brain barrier” value [4] of the same compound?
The value was “cross the blood/brain barrier”.

And the “APP, percent control levels” value (APP; 0.5 μM, FIG. 4)?
The value was 81%.

What about the “APP, % control levels” value (APP; 0.5 μM) of the same compound?
Its value is 75%.

And the “APP, percent control levels” value (APP; 2 μM, FIG. 4)?
The value was 60%.

And the “APP, percent control levels” value (APP; 10 μM, FIG. 4)?
The value was 53%.

What about the “APP, % control levels” value (APP; 10 μM) of the same compound?
Its value is 42%.

What about the “Elimination from the body” value [3] of the same compound?
The value was “slower elimination”.

And the Plasma half-life ([5]; humans)?
The Plasma half-life was “about 3.5 hours”.

And the Oral bioavailability ([5]; in vivo, po)?
The Oral bioavailability was “orally bioavailable”.

What about the Tolerance in humans ([5]; oral dose of 125 mg, twice a day for five days each week for up to two years) of the same compound?
The Tolerance in humans was “relatively well tolerated”.
